Experimental data as given in paper PMC8741970, “Ablation of VLA4 in multiple myeloma cells redirects tumor spread and prolongs survival” (Scientific Reports, 2022).
“Also recorded” adds a separate entry of the source. Blank lines part the entries; values can stand above or below the molecule they belong to.

Assays:
[1] = target: T1, VLA4 on WT 5TGM1-GFP cells (Mus musculus, UniProt P09055+Q00651); assay: Flow cytometry binding to WT 5TGM1-GFP cells; set-up: species or system murine; settings: for binding to WT cells (flow cytometry gate): 1.5 × 10^5 WT 5TGM1-GFP cells, no BIO5192; for binding to WT cells after pre-incubation with BIO5192: WT 5TGM1-GFP cells, pre-incubation with an established therapeutic dose of BIO5192
T1 construct: endogenous in cells; host or cells: WT 5TGM1-GFP murine myeloma cells
Method: (§1) The single cells were suspended in phosphate-buffered saline (PBS) with 0.1% bovine serum albumin as buffer. The human and mouse FC receptors were blocked by human BD Fc block and mouse BD Fc block, respectively. The cell suspension was incubated with fluorochrome-conjugated monoclonal antibodies in dark, at room temperature, for 30 min. Cells were washed twice with buffer afterward, and then proceeded analysis on a Beckman Coulter Gallios flow cytometer. The dead cells were excluded by using 7-amino-actinonycin D (7-AAD). The data were analyzed on FlowJo software. The appropriate isotype antibodies were used as controls.

[2] = target: activated VLA4 on RPMI-8226 (Homo sapiens, UniProt P05556+P13612); settings: RPMI-8226, flow cytometry
Method: as §1

activated VLA4 on 5TGM1 = activated VLA4 on 5TGM1 (Mus musculus, UniProt P09055+Q00651); settings: 5TGM1, flow cytometry
Method: as §1

activated VLA4 on U266 = activated VLA4 on U266 (Homo sapiens, UniProt P05556+P13612); settings: U266, flow cytometry
Method: as §1

activated VLA4 on MM1.S = activated VLA4 on MM1.S (Homo sapiens, UniProt P05556+P13612); settings: flow cytometry
Method: as §1

activated VLA4 on OPM2 = activated VLA4 on OPM2 (Homo sapiens, UniProt P05556+P13612); settings: OPM2, flow cytometry
Method: as §1

activated VLA4 on H929 = activated VLA4 on H929 (Homo sapiens, UniProt P05556+P13612); settings: H929, flow cytometry
Method: as §1

T-lymphocytes = assay: Binding studies with MM patient BM samples, T-lymphocytes; set-up: species or system human
Method: (§2) Purified cells were > 97% for CD38 + CD138 + plasma cells.
(§3) The data were analyzed on FlowJo software. The appropriate isotype antibodies were used as controls.

B-lymphocytes = assay: Binding studies with MM patient BM samples, B-lymphocytes; set-up: species or system human
Method: as §2, §3

[3] = target: activated VLA4 on CD138+CD38+ MM PCs (Homo sapiens, UniProt P05556+P13612); settings: nineteen de-identified BM samples from myeloma patients (13/19); HBSS with Ca2+, Mg2+, 0.1% BSA
Method: as §1, with “The single cells were suspended in phosphate-buffered saline (PBS) with 0.1% bovine serum albumin as buffer.” left out

VLA4 KO 5TGM1-GFP cells = assay: Flow cytometry binding to Itga4 KO 5TGM1-GFP cells; set-up: species or system murine; settings: for binding to KO cells (flow cytometry gate): 1.5 × 10^5 Itga4 KO 5TGM1-GFP cells, no BIO5192; for binding to KO cells after pre-incubation with BIO5192: Itga4 KO 5TGM1-GFP cells, pre-incubation with an established therapeutic dose of BIO5192
Method: as §1

[4] = system: VLA4 expressing cells in BM and spleen of 5TGM1-GFP tumor mice; assay: FACS of ex vivo tissue samples after LLP2A-Cy5 injection; assay type: in vivo, mouse; settings: after i.v. LLP2A-Cy5
Method: as §3
(§4) [picture] Supplementary Figure 4. […] In vivo 3D fluorescence imaging was performed on IVIS Spectrum CT (PerkinElmer, Waltham, MA) with auto-exposure settings in the GFP wavelength (Ex./Em. 480nm/520nm) filter pair. […] GFP^+ cells were co-stained with PE-conjugated anti-mouse CD49d and eFluor450-conjugated anti-mouse CD29 antibodies (middle; Thermo Fisher Scientific) to identify VLA4^+ cells.

[5] = system: 5TGM1-GFP tumors in C57Bl/KaLwRij mice; assay: In vivo and ex vivo NIR fluorescence imaging in the 5TGM1/KaLwRij i.v. MM model; set-up: species or system mouse
Method: All animal studies were conducted according to protocols approved by the Washington University Animal Studies Committee. Mice were anesthetized for all treatments and imaging with 2% v/v isoflurane/100% O2. Female 1–3 month-old C57Bl/6 KaLwRij mice were injected intravenously (i.v.) with 10^6 5TGM1-GFP cells in 100 µL 1 × PBS via the lateral tail vein. Imaging studies were performed 3–4 weeks after tumor implantation. Prior to imaging, hair was removed by gentle clipping and depilatory cream to improve light transmission. Supplemental Fig. S1. […] The images were background subtracted and gated by fluorescence lifetime to minimize autofluorescence and diet-related non-specific fluorescence[65],[66].
Supplementary Fig. 4. Mice were anesthetized for all imaging with 2% v/v isoflurane/100% O2. Female (n = 2)1–3 month old C57Bl/6 KaLwRij mice were injected with 1 × 10^6 5TGM1-GFP WT in 100 µL PBS via the lateral tail-vein. In vivo 3D fluorescence imaging in Supplemental Fig. 3A was performed on IVIS Spectrum CT (PerkinElmer, Waltham, MA) with auto-exposure settings in the GFP wavelength (Ex./Em. 480 nm/520 nm) filter pair.
Supplementary Fig. 5. Mice were anesthetized for all imaging with 2% v/v isoflurane/100% O2. Female 1–3 month old C57Bl/6 KaLwRij mice were injected with 1 × 10^6 5TGM1-GFP WT (n = 11) or KO (n = 12) cells in 100 µL PBS via the lateral tail-vein.
2D analysis and 3D in vivo and ex vivo reconstructions were performed using the Living Image 4.7.1 analysis software. Background fluorescence was subtracted automatically via the “Adaptive Background Subtraction” module within the Living Image 4.7.1 program. Analysis of 2D ex vivo fluorescent images was performed by measuring Total Radiant Efficiency (TRE) (photons/sec/cm^2/sr)/(μW/cm^2) from ROIs drawn around bone and muscle tissue in the GFP and Cy5 images. Tissue to muscle ratio was calculated by dividing TREs of tissue by TREs of muscle tissue of each respective mouse.
as §4

monocytes = assay: Binding studies with MM patient BM samples, monocytes; set-up: species or system human
Method: as §2, §3

[6] = target: activated VLA4 on the surface of the 5TGM1-GFP murine myeloma cells (Mus musculus, UniProt P09055+Q00651); assay: Confocal microscopy of cell surface binding and internalization of Cy5-labelled probes; settings: WT 5TGM1-GFP cells
Method: Blue, green and red colors represent nuclear stain, GFP, and Cy5 signal, respectively in all images (60x; scale bar: 20 µm). […] BIO5192 (100 nM) was used to evaluate non-specific binding.
WT 5TGM1-GFP cells were plated on 35 mm glass bottom MatTek dishes pre-coated with poly-D-lysine (glass no. 1.5; MatTek Corporation, MA) at 10^5 cells/cm^2 and allowed to attach for 1 h at 37 °C. Cells were incubated with the Cy5-labelled probes (1 µM) at 4 °C for 15 min, and at 37 °C for 2.5 h to assess cell surface binding specificity and cellular internalization, respectively. Hoechst 34,580 (10 µg/L, Invitrogen, CA) was added for the last 15 min of incubation to counterstain cell nuclei. Fluorescence confocal microscopy was performed on a Nikon A1Rsi confocal microscope (Nikon Corporation, Tokyo, Japan) with 60X and 100X oil immersion objectives using excitation-emission settings at 405 nm-450/40 nm (Hoechst 34,580), 488 nm-530/20 nm (GFP), and 640–660/20 nm (Cy5).

[7] = ex vivo biodistribution 18 h after i.v. 100 µL of 25 µM LLP2A-Cy5, 5TGM1-GFP WT tumor mice, 3 weeks post inoculation, mean ± SD

T1 sequence (Q00651 34-1039 limits assumed): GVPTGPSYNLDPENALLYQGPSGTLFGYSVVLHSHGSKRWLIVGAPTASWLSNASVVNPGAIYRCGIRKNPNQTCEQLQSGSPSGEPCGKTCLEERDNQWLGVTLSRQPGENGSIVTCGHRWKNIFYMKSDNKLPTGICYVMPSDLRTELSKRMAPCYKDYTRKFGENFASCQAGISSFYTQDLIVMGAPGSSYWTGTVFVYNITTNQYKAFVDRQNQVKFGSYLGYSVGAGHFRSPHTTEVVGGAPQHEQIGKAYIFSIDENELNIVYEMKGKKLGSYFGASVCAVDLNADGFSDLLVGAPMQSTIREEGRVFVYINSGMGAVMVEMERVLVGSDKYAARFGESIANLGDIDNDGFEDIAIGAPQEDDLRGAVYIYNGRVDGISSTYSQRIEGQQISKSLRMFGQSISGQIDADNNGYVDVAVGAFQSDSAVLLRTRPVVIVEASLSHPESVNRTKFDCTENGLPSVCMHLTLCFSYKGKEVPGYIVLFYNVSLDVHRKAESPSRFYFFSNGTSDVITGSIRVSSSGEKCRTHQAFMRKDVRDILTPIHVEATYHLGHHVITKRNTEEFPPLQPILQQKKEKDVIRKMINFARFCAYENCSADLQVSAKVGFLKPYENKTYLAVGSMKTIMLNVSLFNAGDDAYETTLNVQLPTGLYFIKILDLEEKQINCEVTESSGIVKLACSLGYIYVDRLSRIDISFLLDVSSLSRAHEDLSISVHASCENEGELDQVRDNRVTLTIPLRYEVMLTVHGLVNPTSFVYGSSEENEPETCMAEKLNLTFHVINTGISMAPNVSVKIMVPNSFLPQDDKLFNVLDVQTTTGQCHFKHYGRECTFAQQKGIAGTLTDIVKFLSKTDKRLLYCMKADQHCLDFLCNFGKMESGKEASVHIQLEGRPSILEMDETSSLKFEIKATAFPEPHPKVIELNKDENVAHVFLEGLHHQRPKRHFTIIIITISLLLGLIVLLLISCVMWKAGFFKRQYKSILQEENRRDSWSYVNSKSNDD
T1 sequence (P09055 21-798): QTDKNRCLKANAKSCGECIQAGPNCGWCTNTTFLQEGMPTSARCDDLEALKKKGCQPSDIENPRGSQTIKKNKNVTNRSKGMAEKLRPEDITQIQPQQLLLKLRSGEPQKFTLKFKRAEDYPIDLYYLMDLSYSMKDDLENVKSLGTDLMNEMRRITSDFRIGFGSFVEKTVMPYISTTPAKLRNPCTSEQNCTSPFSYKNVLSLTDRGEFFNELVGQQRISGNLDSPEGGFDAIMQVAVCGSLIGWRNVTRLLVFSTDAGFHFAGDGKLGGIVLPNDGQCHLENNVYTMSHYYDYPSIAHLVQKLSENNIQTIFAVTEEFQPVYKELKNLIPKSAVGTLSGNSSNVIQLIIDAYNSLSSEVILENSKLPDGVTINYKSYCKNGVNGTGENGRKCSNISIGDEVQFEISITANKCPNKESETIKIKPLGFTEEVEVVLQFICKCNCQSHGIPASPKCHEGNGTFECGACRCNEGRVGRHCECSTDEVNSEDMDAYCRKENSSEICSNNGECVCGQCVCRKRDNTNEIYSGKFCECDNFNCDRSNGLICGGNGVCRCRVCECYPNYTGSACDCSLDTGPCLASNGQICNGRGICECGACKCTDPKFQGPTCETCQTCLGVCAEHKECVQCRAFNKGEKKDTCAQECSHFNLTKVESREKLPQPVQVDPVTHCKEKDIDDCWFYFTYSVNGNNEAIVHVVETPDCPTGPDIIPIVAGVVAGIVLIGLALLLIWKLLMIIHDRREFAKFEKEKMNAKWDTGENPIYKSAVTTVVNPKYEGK
activated VLA4 on the surface of the 5TGM1-GFP murine myeloma cells, sequence (Q00651 34-1039 limits assumed): as the sequence (Q00651 34-1039 limits assumed) above
activated VLA4 on the surface of the 5TGM1-GFP murine myeloma cells, sequence (P09055 21-798): as the sequence (P09055 21-798) above
activated VLA4 on 5TGM1, sequence (Q00651 34-1039 limits assumed): as the sequence (Q00651 34-1039 limits assumed) above
activated VLA4 on 5TGM1, sequence (P09055 21-798): as the sequence (P09055 21-798) above
activated VLA4 on MM1.S, sequence (P13612 34-1032): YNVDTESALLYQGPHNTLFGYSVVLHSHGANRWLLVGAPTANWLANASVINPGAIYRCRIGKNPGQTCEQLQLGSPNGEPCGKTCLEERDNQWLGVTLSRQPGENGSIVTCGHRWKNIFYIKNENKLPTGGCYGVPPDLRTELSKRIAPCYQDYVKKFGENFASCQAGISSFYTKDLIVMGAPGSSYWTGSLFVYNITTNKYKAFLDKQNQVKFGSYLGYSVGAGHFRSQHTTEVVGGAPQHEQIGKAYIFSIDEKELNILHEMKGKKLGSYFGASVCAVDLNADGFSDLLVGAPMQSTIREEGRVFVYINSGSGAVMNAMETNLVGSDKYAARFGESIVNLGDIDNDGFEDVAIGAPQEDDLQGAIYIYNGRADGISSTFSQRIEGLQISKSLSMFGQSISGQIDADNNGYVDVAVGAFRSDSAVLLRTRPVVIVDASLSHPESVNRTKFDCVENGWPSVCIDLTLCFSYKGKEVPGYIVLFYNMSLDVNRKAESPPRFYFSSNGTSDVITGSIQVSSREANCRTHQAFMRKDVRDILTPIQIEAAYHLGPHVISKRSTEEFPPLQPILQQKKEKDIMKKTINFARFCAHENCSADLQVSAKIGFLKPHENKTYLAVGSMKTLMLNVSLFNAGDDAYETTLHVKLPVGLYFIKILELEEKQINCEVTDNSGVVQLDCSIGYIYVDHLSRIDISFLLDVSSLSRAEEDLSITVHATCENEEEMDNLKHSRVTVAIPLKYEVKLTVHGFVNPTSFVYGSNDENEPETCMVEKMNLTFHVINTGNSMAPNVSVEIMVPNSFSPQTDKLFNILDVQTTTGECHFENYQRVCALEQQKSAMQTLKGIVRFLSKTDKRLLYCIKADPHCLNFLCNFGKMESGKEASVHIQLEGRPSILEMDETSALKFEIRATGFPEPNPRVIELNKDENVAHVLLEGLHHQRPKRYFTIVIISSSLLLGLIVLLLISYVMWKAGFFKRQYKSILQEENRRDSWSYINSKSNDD
activated VLA4 on MM1.S, sequence (P05556 21-798): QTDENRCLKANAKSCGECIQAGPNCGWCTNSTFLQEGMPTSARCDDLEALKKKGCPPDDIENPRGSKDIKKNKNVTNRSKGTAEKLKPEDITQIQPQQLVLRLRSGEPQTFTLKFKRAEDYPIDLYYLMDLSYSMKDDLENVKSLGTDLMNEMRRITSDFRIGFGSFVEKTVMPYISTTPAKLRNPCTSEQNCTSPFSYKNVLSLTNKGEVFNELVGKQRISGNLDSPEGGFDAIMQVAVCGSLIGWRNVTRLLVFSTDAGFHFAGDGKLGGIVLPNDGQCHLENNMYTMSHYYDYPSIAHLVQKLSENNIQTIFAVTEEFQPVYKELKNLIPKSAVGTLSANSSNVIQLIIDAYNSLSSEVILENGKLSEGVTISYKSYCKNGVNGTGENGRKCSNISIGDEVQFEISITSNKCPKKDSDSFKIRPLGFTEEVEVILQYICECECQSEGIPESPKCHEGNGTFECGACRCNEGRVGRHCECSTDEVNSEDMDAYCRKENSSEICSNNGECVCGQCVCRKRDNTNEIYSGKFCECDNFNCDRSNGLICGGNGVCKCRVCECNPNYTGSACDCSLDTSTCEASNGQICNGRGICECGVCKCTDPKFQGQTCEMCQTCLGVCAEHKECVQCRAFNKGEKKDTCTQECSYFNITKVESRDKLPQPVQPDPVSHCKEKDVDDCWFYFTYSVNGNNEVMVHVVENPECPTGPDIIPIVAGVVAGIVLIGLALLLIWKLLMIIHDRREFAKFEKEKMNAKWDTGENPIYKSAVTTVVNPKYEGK
activated VLA4 on U266, sequence (P13612 34-1032): as the sequence (P13612 34-1032) above
activated VLA4 on U266, sequence (P05556 21-798): as the sequence (P05556 21-798) above
activated VLA4 on OPM2, sequence (P13612 34-1032): as the sequence (P13612 34-1032) above
activated VLA4 on OPM2, sequence (P05556 21-798): as the sequence (P05556 21-798) above
activated VLA4 on RPMI-8226, sequence (P13612 34-1032): as the sequence (P13612 34-1032) above
activated VLA4 on RPMI-8226, sequence (P05556 21-798): as the sequence (P05556 21-798) above
activated VLA4 on H929, sequence (P13612 34-1032): as the sequence (P13612 34-1032) above
activated VLA4 on H929, sequence (P05556 21-798): as the sequence (P05556 21-798) above
activated VLA4 on CD138+CD38+ MM PCs, sequence (P13612 34-1032): as the sequence (P13612 34-1032) above
activated VLA4 on CD138+CD38+ MM PCs, sequence (P05556 21-798): as the sequence (P05556 21-798) above

Molecule: Cc1ccccc1NC(=O)Nc1ccc(CC(=O)N[C@@H](CCCCNC(=O)/C=C/c2cccnc2)C(=O)N[C@@H](CCCC(=O)O)C(=O)NC2(C(N)=O)CCCCC2)cc1 [LLP2A-Cy5]
binding to WT cells (flow cytometry gate) [1]: 100%
binding to WT cells after pre-incubation with BIO5192 [1]: 0.95%
% LLP2A-Cy5+ [2]: 59.5%
LLP2A-Cy5+ median fluorescence intensity (MFI) [2]: 3.2
% LLP2A-Cy5+ (activated VLA4 on 5TGM1): 100%
LLP2A-Cy5+ median fluorescence intensity (MFI) (activated VLA4 on 5TGM1): 23.4
% LLP2A-Cy5+ (activated VLA4 on U266): 100%
LLP2A-Cy5+ median fluorescence intensity (MFI) (activated VLA4 on U266): 16.1
% LLP2A-Cy5+ (activated VLA4 on MM1.S): 22.4%
LLP2A-Cy5+ median fluorescence intensity (MFI) (activated VLA4 on MM1.S): 2.1
% LLP2A-Cy5+ (activated VLA4 on OPM2): 80.1%
LLP2A-Cy5+ median fluorescence intensity (MFI) (activated VLA4 on OPM2): 4.6
% LLP2A-Cy5+ (activated VLA4 on H929): 63.3%
LLP2A-Cy5+ median fluorescence intensity (MFI) (activated VLA4 on H929): 3.4
percentage of LLP2A-Cy5+ cells (T-lymphocytes): 36.3%
relative median fluorescence (RMFI) (T-lymphocytes): 2.2
percentage of LLP2A-Cy5+ cells (B-lymphocytes): 23.3%
relative median fluorescence (RMFI) (B-lymphocytes): 1.7
share of patient samples in which LLP2A-Cy5 stained over 20% of CD138+CD38+ MM PCs [3]: 68%
binding to KO cells (flow cytometry gate) (VLA4 KO 5TGM1-GFP cells): 0.6%
binding to KO cells after pre-incubation with BIO5192 (VLA4 KO 5TGM1-GFP cells): 0.52%
% LLP2A-Cy5+ cells in the BM ([4]; ex vivo BM, GFP+ tumor cells (97.5% VLA4+)): 84.7%
% LLP2A-Cy5+ cells in the hematopoietic BM niche ([4]; hematopoietic BM niche (63.6% VLA4+)): 53.2%
uptake in KO tumor foci compared with WT ([5]; KaLwRij mice with Itga4 KO versus WT 5TGM1-GFP tumors, ex vivo fluorescence imaging 18 h after LLP2A-Cy5): significantly reduced uptake
femur-muscle fluorescence ratio [5, 7]: 7.0 ± 2.5
spleen-muscle fluorescence ratio [5, 7]: 2.6 ± 0.7
time post-injection at which tumor contrast peaked ([5]; noninvasive fluorescence imaging before, 4 and 18 h after i.v. 100 µL of 25 µM LLP2A-Cy5): ~ 18 h
percentage of LLP2A-Cy5+ cells (monocytes): 58.2%
relative median fluorescence (RMFI) (monocytes): 3.0
cellular localization after extended incubation ([6]; 1 µM, 37 °C, 2.5 h, confocal 3D z-stack): dominant cell membrane binding; also recorded: strong cell surface binding with minimal internalization
fold reduction of cell surface binding on blocking with excess unlabeled peptide ([6]; LLP2A-Cy5 1 µM co-incubated with 100-fold excess LLP2A-PEG4 (100 µM), 15 min, 4 °C, confocal microscopy): 3.07 ± 0.3 fold

binding to WT cells (flow cytometry gate) [1]: 97.7%
binding to WT cells after pre-incubation with BIO5192 [1]: 3.33%
B1: sVCAM-1: soluble vascular cell adhesion molecule-1, natural ligand of VLA4 (protein, UniProt P19320 25-698, looked up)
extracellular domain: FKIETTPESRYLAQIGDSVSLTCSTTGCESPFFSWRTQIDSPLNGKVTNEGTTSTLTMNPVSFGNEHSYLCTATCESRKLEKGIQVEIYSFPKDPEIHLSGPLEAGKPITVKCSVADVYPFDRLEIDLLKGDHLMKSQEFLEDADRKSLETKSLEVTFTPVIEDIGKVLVCRAKLHIDEMDSVPTVRQAVKELQVYISPKNTVISVNPSTKLQEGGSVTMTCSSEGLPAPEIFWSKKLDNGNLQHLSGNATLTLIAMRMEDSGIYVCEGVNLIGKNRKEVELIVQEKPFTVEISPGPRIAAQIGDSVMLTCSVMGCESPSFSWRTQIDSPLSGKVRSEGTNSTLTLSPVSFENEHSYLCTVTCGHKKLEKGIQVELYSFPRDPEIEMSGGLVNGSSVTVSCKVPSVYPLDRLEIELLKGETILENIEFLEDTDMKSLENKSLEMTFIPTIEDTGKALVCQAKLHIDDMEFEPKQRQSTQTLYVNVAPRDTTVLVSPSSILEEGSSVNMTCLSQGFPAPKILWSRQLPNGELQPLSENATLTLISTKMEDSGVYLCEGINQAGRSRKEVELIIQVTPKDIKLTAFPSESVKEGDTVIISCTCGNVPETWIILKKKAETGDTVLKSIDGAYTIRKAQLKDAGVYECESKNKVGSQLRSLTLDVQGRENNKDYFSPE
modifications: extracellular domain
notes: soluble vascular cell adhesion molecule-1, natural ligand of VLA4
binding to KO cells (flow cytometry gate) (VLA4 KO 5TGM1-GFP cells): 1.65 ± 0.07%
binding to KO cells after pre-incubation with BIO5192 (VLA4 KO 5TGM1-GFP cells): 2.51%
